Values after ≈ are worked out from the molar mass of the structure shown.
What was measured:
Staphylococcus aureus = test: Antibacterial activity against Staphylococcus aureus ATCC 29213 assessed as bacterial growth inhibition incubated for 24 hrs by photometric analysis; format: functional
[1] = Immunosuppressive activity against B cell (unknown origin) assessed as inhibition of LPS-induced cell proliferation; format: functional, cell-based

Row | SMILES | MIC50 (Staphylococcus aureus) | IC50 [1]
1 | CC1=C2[C@@H]3CC(C)(C)C[C@@H]3[C@H](O[C@@H]3OC[C@@H](O)[C@H](O)[C@H]3O)[C@@]2(C)CC1=O | 69 µM (≈ 25.3 µg/mL) | 
2 | CCCCCC[C@@H](O)C(=O)O[C@@H]1[C@@H]2[C@H](CC1(C)C)[C@H](O)[C@@]1([C@H](O)C(=O)OC)OCC(=O)[C@@]21C |  | 6.6 µM
3 | CC1(C)C[C@H]2[C@@H](C1)C1=CC(=O)C[C@]1(C)[C@H]2O[C@@H]1O[C@H](CO)[C@@H](O)[C@H](O)[C@H]1O | 34 µM (≈ 13 µg/mL) | 
4 | CC1=C2[C@@H]3CC(C)(C)C[C@@H]3[C@H](O[C@@H]3O[C@H](CO)[C@@H](O)[C@H](O)[C@H]3O)[C@@]2(C)CC1=O | 35 µM (≈ 13.9 µg/mL) | 
